Measurements as given in patent US20090136448A1, “Antiviral 2-Carboxy-Thiophene Compounds” (priority 2005, published 2009).

Experiments:
[1] = test system: HCV replication, genotype 1a (Huh-7 HCV replicon cell); test: Replicon ELISA cell based assay, genotype 1a; details: Hepatitis C virus, Huh-7 HCV replicon cells, 72 hours, mean, assayed at least twice
Experimental: (§1) Replicon ELISA Cell Based Assay
(§2) 100 μL of medium containing 10% FCS were added to each well of clear, flat-bottomed 96 well microplates, excepting wells in the top row. Test compound was diluted in assay medium to twice the final required starting concentration from a 40 mM stock solution in DMSO. 200 μL of the starting dilution were introduced into two wells each in the top row and doubling dilutions made down the plate by the sequential transfer of 100 μL aliquots with thorough mixing in the wells; the final 100 μL were discarded. The two bottom rows were not used for compound dilutions. Huh-7 HCV replicon cell monolayers nearing confluency were stripped from growth flasks with versene-trypsin solution and the cells were resuspended in assay medium at either 2×10^5 cells/mL (sub-line 5-15; genotype 1b; Lohmann, V., Korner, F., Koch, J-O., Herian, U., Thielmann, L. and Bartenschlager, R., Science, 1999, 285, 110-113) or at 3×10^5 cells/mL (genotype 1a; Gu, B., Gates, A. T., Isken, O., Behrens, S. E. and Sarisky, R. T., J. Virol., 2003, 77, 5352-5359). 100 μL of cell suspension were added to all wells and the plates incubated at 37° C. for 72 hours in a 5% CO2 atmosphere.
(§3) Following incubation, the assay medium was aspirated from the plates. The cell sheets were washed by gentle immersion in phosphate buffered saline (PBS), which was then aspirated off, and fixed with acetone:methanol (1:1) for 5 minutes. Following a further wash with PBS, 100 μL of ELISA diluent (PBS+0.05% v/v Tween 20+2% w/v skimmed milk powder) were added to all wells and the plates incubated at 37° C. for 30 minutes on an orbital platform. The diluent was removed and each well then received 50 μL of a 1/200 dilution of anti-HCV specific, murine, monoclonal antibody (either Virostat #1872 or #1877), except for wells in one of the compound-free control rows which received diluent alone to act as negative controls. The plates were incubated at 37° C. for 2 hours and washed 3 times with PBS/0.05% Tween 20, then 50 μL of horseradish peroxidase conjugated, anti-mouse, rabbit polyclonal serum (Dako #P0260), diluted 1/1000, were added to all wells. The plates were incubated for a further hour, the antibody removed and the cell sheets washed 5 times with PBS/Tween and blotted dry. The assay was developed by the addition of 50 μL of ortho-phenylenediamine/peroxidase substrate in urea/citrate buffer (SigmaFast, Sigma #P-9187) to each well, and colour allowed to develop for up to 15 minutes. The reaction was stopped by the addition of 25 μL per well of 2 M sulphuric acid and the plates were read at 490 nm on a Fluostar Optima spectrophotometer.
(§4) The substrate solution was removed and the plates were washed in tap water, blotted dry and the cells stained with 5% carbol fuchsin in water for 30 minutes. The stain was discarded and the cell sheets washed, dried and examined microscopically to assess cytotoxicity.
(§5) The absorbance values from all compound-free wells that had received both primary and secondary antibodies were averaged to obtain a positive control value. The mean absorbance value from the compound-free wells that had not received the primary antibody was used to provide the negative (background) control value. The readings from the duplicate wells at each compound concentration were averaged and, after the subtraction of the mean background from all values, were expressed as a percentage of the positive control signal. The quantifiable and specific reduction of expressed protein detected by the ELISA in the presence of a drug can be used as a measure of replicon inhibition. GraFit software (Erithacus Software Ltd.) was used to plot the curve of percentage inhibition against compound concentration and derive the 50% inhibitory concentration (IC50) for the compound.

[2] = test system: HCV replication, genotype 1b (Huh-7 HCV replicon cell, sub-line 5-15); test: Replicon ELISA cell based assay, genotype 1b; details: Hepatitis C virus, Huh-7 HCV replicon cells, genotype 1b (sub-line 5-15), 72 hours, mean, assayed at least twice
Experimental: as §1, §2, §3, §4, §5

| Compound | IC50 [1] [nM] | IC50 [2] [nM] |
| --- | --- | --- |
| CC(C)N(c1cc(-c2ccc(Cl)cc2)sc1C(=O)O)C(=O)[C@H]1CC[C@H](C)CC1 [Compound B, 5-(4-Chlorophenyl)-3-[[(trans-4-methylcyclohexyl)carbonyl](1-methylethyl)amino]-2-thiophenecarboxylic acid, reference compound] | 1000 to 5000 | 1000 to 5000 |
| CC(C)N(c1cc(-c2ccc(-c3cc4ncccn4n3)cc2)sc1C(=O)O)C(=O)[C@H]1CC[C@H](C)CC1 [Example 2, 3-[[(trans-4-Methylcyclohexyl)carbonyl](1-methylethyl)amino]-5-(4-pyrazolo[1,5-a]pyrimidin-2-ylphenyl)-2-thiophenecarboxylic acid] | 10 to 50 | 10 to 50 |
| CC(C)N(c1cc(-c2ccc(-c3nc4ccc(N)cc4o3)cc2)sc1C(=O)O)C(=O)[C@H]1CC[C@H](C)CC1 [Example 23, 5-[4-(6-Amino-1,3-benzoxazol-2-yl)phenyl]-3-[[(trans-4-methylcyclohexyl)carbonyl](1-methylethyl)amino]-2-thiophenecarboxylic acid] | 50 to 100 | 10 to 50 |
| CC(C)N(c1cc(-c2ccc(-c3ccn4nccc4n3)cc2)sc1C(=O)O)C(=O)[C@H]1CC[C@H](C)CC1 [Example 17, 3-[[(trans-4-Methylcyclohexyl)carbonyl](1-methylethyl)amino]-5-(4-pyrazolo[1,5-a]pyrimidin-5-ylphenyl)-2-thiophenecarboxylic acid] | 100 to 500 | 100 to 500 |
| CC(C)N(c1cc(-c2ccc(-c3nc4cccc(O)c4o3)cc2)sc1C(=O)O)C(=O)[C@H]1CC[C@H](C)CC1 [Example 20, 5-[4-(7-Hydroxy-1,3-benzoxazol-2-yl)phenyl]-3-[[(trans-4-methylcyclohexyl)carbonyl](1-methylethyl)amino]-2-thiophenecarboxylic acid] | 100 to 500 | 10 to 50 |
| CC(C)N(c1cc(-c2ccc(-c3nc4ncccc4o3)cc2)sc1C(=O)O)C(=O)[C@H]1CC[C@H](C(F)(F)F)CC1 [Example 25, 3-((1-Methylethyl){[trans-4-(trifluoromethyl)cyclohexyl]carbonyl}amino)-5-(4-[1,3]oxazolo[4,5-b]pyridin-2-ylphenyl)-2-thiophenecarboxylic acid] | 100 to 500 | 100 to 500 |
| CC(C)N(C(=O)c1ccc(Cl)cc1Cl)c1cc(-c2ccc(-c3nnn[nH]3)cc2)sc1C(=O)O [Compound F, 3-[[(2,4-Dichlorophenyl)carbonyl](1-methylethyl)amino]-5-[4-(1H-tetrazol-5-yl)phenyl]-2-thiophenecarboxylic acid, reference compound] | 1000 to 5000 | > 5000 |
| CC(C)N(c1cc(-c2ccc(-c3cn4ccsc4n3)cc2)sc1C(=O)O)C(=O)[C@H]1CC[C@H](C(F)(F)F)CC1 [Example 21, 5-(4-Imidazo[2,1-b][1,3]thiazol-6-ylphenyl)-3-((1-methylethyl){[trans-4-(trifluoromethyl)cyclohexyl]carbonyl}amino)-2-thiophenecarboxylic acid] | 50 to 100 | 100 to 500 |
| CC(C)N(c1cc(-c2ccc(-c3cn4cc(N)ccc4n3)cc2)sc1C(=O)O)C(=O)[C@H]1CC[C@H](C)CC1 [Example 27, 5-[4-(6-Aminoimidazo[1,2-a]pyridin-2-yl)phenyl]-3-[[(trans-4-methylcyclohexyl)carbonyl](1-methylethyl)amino]-2-thiophenecarboxylic acid] | 100 to 500 | 100 to 500 |
